Laboratory results as given in patent US12195463B2 (priority 2018, dated 2025).

Legend:
D1 = D1 (Homo sapiens, UniProt P21728); conditions: qualitative statement
D2 = D2 (Homo sapiens, UniProt P14416); conditions: qualitative statement
SERT = SERT (Homo sapiens, UniProt P31645); assay: biochemical; assay type: binding
SERT, sequence (P31645 whole entry, species assumed): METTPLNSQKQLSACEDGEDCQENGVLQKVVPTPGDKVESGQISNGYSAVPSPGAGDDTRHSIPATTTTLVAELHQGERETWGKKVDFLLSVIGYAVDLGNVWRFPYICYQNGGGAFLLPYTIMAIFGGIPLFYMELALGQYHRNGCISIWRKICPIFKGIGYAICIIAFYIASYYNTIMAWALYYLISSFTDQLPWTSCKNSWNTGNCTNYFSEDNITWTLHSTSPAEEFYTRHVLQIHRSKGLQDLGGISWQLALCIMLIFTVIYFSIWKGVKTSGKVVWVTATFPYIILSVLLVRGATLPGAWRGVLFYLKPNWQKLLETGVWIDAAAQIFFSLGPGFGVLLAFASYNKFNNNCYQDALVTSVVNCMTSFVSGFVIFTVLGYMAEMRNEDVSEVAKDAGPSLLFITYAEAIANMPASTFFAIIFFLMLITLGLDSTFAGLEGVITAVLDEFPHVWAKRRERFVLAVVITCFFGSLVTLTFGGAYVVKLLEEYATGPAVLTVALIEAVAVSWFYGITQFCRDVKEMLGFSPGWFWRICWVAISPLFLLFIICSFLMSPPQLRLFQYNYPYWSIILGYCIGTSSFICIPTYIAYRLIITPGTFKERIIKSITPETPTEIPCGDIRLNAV

D2, sequence (P14416 1-414 isoform P14416-2): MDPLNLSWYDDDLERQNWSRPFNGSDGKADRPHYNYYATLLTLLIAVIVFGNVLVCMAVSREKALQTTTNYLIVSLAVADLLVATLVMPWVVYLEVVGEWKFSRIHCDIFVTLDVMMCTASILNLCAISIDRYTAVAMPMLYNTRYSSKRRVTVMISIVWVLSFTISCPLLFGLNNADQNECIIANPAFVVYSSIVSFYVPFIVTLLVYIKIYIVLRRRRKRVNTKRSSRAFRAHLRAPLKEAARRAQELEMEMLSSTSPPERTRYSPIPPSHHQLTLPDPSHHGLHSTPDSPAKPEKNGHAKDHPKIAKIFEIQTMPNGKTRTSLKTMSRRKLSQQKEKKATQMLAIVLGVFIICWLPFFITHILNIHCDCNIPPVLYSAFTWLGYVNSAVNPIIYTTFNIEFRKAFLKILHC
D1, sequence (P21728 whole entry): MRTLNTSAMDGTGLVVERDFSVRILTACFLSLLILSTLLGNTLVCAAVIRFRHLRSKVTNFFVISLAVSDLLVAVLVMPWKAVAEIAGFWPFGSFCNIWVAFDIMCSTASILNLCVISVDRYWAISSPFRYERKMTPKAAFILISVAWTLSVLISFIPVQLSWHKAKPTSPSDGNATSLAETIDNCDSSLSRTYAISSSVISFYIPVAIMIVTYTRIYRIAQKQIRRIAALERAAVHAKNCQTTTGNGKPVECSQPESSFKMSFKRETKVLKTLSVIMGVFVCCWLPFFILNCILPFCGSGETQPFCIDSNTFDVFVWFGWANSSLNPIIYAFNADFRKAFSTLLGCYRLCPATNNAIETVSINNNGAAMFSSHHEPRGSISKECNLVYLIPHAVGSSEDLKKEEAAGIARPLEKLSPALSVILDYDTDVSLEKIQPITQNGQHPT

Row | Structure (SMILES) | D1 receptor binding, in words (D1) | D2 affinity, in words (D2) | SERT activity, in words (SERT; qualitative statement) | Ki (SERT; read-out: Ki (nM) or maximum inhibition) [nM]
1 | O=C1CN2c3c(cccc3[C@H]3CN(CCCOc4ccc(F)cc4)CC[C@H]32)N1 [Example 1, (6bS,10aR)-8-(3-(4-fluorophenoxy)propyl)-6b,7,8,9,10,10a-hexahydro-1H-pyrido[3′,4′:4,5]pyrrolo[1,2,3-de]quinoxalin-2(3H)-one] | moderately strong D1 receptor binding | weak D2 affinity | no SERT activity | 
2 | O=C1CN2c3c(cccc3[C@@H]3CN(CCCOc4ccc(F)cc4)CC[C@@H]32)N1 [Compound A, reference compound] |  |  |  | ≤ 600
